Measurements taken from ChEMBL document CHEMBL3301562, “MMV Box screening against Plasmodium falciparum protein kinases and aminoacyl tRNA synthetases”.

Tests used:
Assay type in all cases: functional
[1] = target: T1, Cdk-related protein kinase 6 (Plasmodium falciparum, UniProt O77239); experiment: Final concentrations were 1.5 uM ATP, 5 mM MnCl2, and 15 ug/ml PK6 in a buffer of 100 mM Tris-HCl (pH 7.5). 50 ug/mL MBP was provided as the substrate; 10 uM staurosporine was used as a control inhibitor. Incubation time was 3 hours and 40 minutes.The catalytic activity of each kinase was considered proportional to ATP consumed, as determined from measurements of residual [ATP] with the luciferase-based reagent Kinase-Glo (Promega) following incubation. Luminescence (proportional to residual [ATP]) was measured on the plate readers FLx800 (BioTek Instruments, Winooski, VT, USA) and MicroBeta2.
T1 sequence (O77239 whole entry): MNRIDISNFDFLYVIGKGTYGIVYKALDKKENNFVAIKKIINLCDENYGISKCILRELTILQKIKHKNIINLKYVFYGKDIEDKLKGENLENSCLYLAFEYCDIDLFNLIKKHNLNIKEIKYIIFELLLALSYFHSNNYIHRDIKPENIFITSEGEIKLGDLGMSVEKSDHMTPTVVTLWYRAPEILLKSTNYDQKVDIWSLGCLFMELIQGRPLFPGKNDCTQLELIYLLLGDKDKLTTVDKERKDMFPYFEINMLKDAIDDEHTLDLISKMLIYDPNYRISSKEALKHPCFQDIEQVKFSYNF

[2] = target: T2, Putative uncharacterized protein pk7 (Plasmodium falciparum, UniProt O96214); experiment: Final concentrations were 1 uM ATP, 2 mM DTT, 20 mM MgCl2, 2 mM MnCl2, 0.01% BSA, and 6 ug/ml PK7, in a buffer of 20 mM Tris-HCl (pH 7.5). The enzyme itself was the only substrate present (since autophosphorylation occurs); 100 uM 1NA-PP1 was used as a control inhibitor. Incubation time was 3 hours.
T2 sequence (O96214 whole entry): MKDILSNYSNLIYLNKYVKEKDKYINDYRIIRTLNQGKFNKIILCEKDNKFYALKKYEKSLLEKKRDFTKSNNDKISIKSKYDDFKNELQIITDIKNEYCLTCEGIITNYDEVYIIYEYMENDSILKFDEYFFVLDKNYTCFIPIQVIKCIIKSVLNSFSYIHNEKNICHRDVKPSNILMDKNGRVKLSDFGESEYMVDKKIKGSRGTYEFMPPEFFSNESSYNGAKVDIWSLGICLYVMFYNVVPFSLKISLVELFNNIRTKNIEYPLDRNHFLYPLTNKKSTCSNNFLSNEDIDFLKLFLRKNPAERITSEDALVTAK

[3] = target: T3, Mitogen-activated protein kinase (Plasmodium falciparum, UniProt Q25917); experiment: Final concentrations were 1 uM ATP, 0.5 mM DTT, 1 mM MgCl2, 0.5 mg/mL BSA, and 10 ug/ml MAP2 in a buffer of 50 mM HEPES (pH 7.0). 0.5 mg/mL histone III-S served as the substrate (13); 100 uM AMP-PNP, an ATP analog, was used as a control inhibitor. Incubation time was 4 hours.
T3 sequence (Q25917 whole entry): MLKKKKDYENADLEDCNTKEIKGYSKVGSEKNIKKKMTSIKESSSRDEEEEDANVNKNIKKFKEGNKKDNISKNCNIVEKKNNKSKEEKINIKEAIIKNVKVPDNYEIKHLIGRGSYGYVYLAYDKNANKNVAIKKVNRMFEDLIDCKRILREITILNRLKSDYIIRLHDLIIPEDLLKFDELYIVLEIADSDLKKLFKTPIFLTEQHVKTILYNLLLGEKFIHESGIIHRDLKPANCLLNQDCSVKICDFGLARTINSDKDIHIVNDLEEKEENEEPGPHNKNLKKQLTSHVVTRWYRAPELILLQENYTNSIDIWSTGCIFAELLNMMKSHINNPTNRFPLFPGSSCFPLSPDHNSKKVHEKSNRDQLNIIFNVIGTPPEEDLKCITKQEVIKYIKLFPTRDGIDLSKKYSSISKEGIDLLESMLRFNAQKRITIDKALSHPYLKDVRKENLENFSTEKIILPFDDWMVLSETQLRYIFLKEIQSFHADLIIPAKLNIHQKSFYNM

[4] = target: Calcium-dependent protein kinase 1 (Plasmodium falciparum, UniProt P62344); experiment: MMV: CDPK1 Protein kinase inhibition assay using recombinant PfCDPK1, syntide 2 peptide substrate, ATP and KinaseGlo to measure % inhibition at 1 uM MMV box compound.
[5] = target: T4, Calcium-dependent protein kinase 4 (Plasmodium falciparum (isolate 3D7), UniProt Q8IBS5); experiment: MMV: CDPK4 Protein kinase inhibition assay using recombinant PfCDPK4, syntide2 peptide substrate, ATP and KinaseGlo to measure % inhibition at 1 uM MMV box compound.
T4 sequence (Q8IBS5 whole entry): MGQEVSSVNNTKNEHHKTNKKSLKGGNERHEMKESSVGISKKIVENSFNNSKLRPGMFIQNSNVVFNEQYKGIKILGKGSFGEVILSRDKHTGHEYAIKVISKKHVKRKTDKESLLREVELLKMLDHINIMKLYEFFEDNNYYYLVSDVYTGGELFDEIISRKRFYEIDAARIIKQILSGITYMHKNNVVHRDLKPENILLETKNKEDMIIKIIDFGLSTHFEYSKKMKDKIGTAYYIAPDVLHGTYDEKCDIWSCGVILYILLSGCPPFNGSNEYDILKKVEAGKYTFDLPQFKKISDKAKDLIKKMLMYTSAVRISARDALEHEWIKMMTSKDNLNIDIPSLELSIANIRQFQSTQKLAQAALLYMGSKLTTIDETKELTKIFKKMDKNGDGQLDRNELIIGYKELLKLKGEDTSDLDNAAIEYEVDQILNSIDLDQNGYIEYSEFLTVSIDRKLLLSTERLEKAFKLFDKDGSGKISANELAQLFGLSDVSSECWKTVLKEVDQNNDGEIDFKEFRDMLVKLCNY

Proline--tRNA ligase = target: T5, Proline--tRNA ligase (Plasmodium falciparum (isolate 3D7), UniProt Q8I5R7); experiment: MMV: ProRS recombinant Plasmodium falciparum Prolyl-tRNA-synthetase, assay with yeast tRNA, ATP, and proline and 3 uM MMV malaria box compound, assay read out with kinase glo as % inhibition.
T5 sequence (Q8I5R7 whole entry): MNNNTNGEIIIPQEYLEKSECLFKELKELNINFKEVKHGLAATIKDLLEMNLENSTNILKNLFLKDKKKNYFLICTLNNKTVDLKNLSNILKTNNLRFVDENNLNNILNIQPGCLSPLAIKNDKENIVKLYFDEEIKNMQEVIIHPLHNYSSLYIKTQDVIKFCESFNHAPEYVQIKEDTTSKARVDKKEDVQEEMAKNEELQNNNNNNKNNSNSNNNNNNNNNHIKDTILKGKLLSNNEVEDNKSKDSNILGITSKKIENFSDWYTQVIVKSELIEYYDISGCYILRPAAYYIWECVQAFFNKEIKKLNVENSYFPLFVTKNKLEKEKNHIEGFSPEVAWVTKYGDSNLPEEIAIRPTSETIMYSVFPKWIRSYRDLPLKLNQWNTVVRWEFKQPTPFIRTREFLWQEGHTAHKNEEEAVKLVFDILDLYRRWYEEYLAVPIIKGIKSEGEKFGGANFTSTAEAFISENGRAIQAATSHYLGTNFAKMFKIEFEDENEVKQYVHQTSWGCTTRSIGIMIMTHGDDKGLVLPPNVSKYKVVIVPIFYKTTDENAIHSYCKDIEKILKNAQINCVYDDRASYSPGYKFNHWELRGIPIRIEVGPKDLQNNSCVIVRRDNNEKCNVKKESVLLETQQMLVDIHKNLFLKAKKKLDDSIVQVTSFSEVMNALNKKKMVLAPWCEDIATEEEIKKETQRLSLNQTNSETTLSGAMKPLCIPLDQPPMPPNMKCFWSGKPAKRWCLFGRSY

Lysine--tRNA ligase = Lysine--tRNA ligase (Plasmodium falciparum (isolate 3D7), UniProt Q8IDJ8); experiment: MMV: KRS recombinant Plasmodium falciparum Lysyl-tRNA-synthetase, assay with yeast tRNA, ATP, and lysine and 3 uM MMV malaria box compound, assay read out with kinase glo as % inhibition.
Lysine--tRNA ligase, sequence (Q8IDJ8 whole entry): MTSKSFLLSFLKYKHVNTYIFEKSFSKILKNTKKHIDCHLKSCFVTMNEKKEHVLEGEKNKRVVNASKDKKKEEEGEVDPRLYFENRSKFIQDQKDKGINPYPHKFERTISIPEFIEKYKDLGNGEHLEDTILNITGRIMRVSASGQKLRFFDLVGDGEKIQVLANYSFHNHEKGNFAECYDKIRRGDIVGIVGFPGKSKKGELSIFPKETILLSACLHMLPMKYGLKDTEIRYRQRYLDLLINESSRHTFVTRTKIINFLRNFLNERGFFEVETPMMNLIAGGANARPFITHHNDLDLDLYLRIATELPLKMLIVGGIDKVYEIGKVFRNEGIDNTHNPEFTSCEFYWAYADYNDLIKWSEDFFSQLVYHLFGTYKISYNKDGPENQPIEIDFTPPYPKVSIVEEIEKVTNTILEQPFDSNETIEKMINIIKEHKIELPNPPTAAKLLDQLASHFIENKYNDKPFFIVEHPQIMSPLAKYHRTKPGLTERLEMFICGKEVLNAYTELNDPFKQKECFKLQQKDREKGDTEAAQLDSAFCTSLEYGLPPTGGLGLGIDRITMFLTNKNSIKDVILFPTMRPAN

Calcium-dependent protein kinase 1, sequence (P62344 whole entry): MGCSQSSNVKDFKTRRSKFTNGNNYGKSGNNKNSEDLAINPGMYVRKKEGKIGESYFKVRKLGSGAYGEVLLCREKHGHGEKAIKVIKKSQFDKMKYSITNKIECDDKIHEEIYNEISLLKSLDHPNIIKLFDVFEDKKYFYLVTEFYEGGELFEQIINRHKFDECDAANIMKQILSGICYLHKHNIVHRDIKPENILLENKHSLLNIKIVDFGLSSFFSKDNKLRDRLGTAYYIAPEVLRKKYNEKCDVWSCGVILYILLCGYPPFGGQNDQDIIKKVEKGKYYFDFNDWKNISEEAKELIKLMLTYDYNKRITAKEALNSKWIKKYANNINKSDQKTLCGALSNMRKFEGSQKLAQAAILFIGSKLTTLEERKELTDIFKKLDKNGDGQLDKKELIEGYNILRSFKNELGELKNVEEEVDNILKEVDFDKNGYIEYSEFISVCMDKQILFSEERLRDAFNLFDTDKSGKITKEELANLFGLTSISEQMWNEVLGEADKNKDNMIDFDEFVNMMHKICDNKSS

| SMILES | IC50 [1] [nM] | IC50 [2] [nM] | IC50 [3] [nM] | IC50 [4] [nM] | IC50 [5] [nM] | IC50 (Proline--tRNA ligase) [nM] | IC50 (Lysine--tRNA ligase) [nM] |
| --- | --- | --- | --- | --- | --- | --- | --- |
| CCN1CCCC1CNc1[nH]cnc2c3cc(Cl)ccc3nc1-2 (stereo not given) | > 1000 | > 1000 | > 1000 | > 1000 | > 1000 | > 2500 | > 2500 |
| C[n+]1c2ccccc2nc2ccc(NCCO)cc21 | > 1000 | > 1000 | > 1000 | > 1000 | > 1000 | > 2500 | > 2500 |
| CCOC(=O)c1cnc2ccc(CC)cc2c1O | > 1000 | > 1000 | > 1000 | > 1000 | > 1000 | > 2500 | > 2500 |
| Cc1ccc(-c2cc3c(nn2)-c2ccccc2C3=O)cc1 | > 1000 | > 1000 | > 1000 | > 1000 | > 1000 | > 2500 | > 2500 |
| COc1ccc(-n2ccnc2SCC(=O)Nc2cc(C)ccc2C)c(OC)c1 | > 1000 | > 1000 | > 1000 | > 1000 | > 1000 | > 2500 | > 2500 |
| CCN1CCN(Cc2ccc(NC(=O)c3cc4ccc5cccnc5c4[nH]3)cc2)CC1 | > 1000 | > 1000 | > 1000 | > 1000 | > 1000 | > 2500 | > 2500 |
| CCOc1cc2c(cc1OCC)C(c1cc(OC)c(O)cc1Cl)NCC2 (stereo not given) | > 1000 | > 1000 | > 1000 | > 1000 | > 1000 | > 2500 | > 2500 |
| COc1cccc(C=Cc2nc(=O)c3ccccc3o2)c1OC | > 1000 | > 1000 | > 1000 | > 1000 | > 1000 | > 2500 | > 2500 |
| COc1ccc(C(=O)Nc2nonc2-c2ccc(OC)c(OC)c2)cc1Cl | > 1000 | > 1000 | > 1000 | > 1000 | > 1000 | > 2500 | > 2500 |
| COc1ccc2c(c1)OC(O)(C(F)(F)C(F)(F)F)CC2=O (stereo not given) | > 1000 | > 1000 | > 1000 | > 1000 | > 1000 | > 2500 | > 2500 |
